Measured values reported in PubChem BioAssay AID328 (DTP/NCI, 2004).
Several values for one entry are separate records, joined by “and”; a condition that tells them apart may be missing. Identical values can stand only once. Inconclusive results and toxic doses are left out.

Tested on: BDF1 mice, P388 leukemia ip, median survival T/C
Assay: NCI In Vivo Anticancer Drug Screen. Data for tumor model P388 Leukemia (intraperitoneal) in B6D2F1 (BDF1) mice
Settings: endpoint: median survival time, higher = longer survival
In short: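 Transplantable tumour in mice; compound vs vehicle dosing; survival scored; ratio of treated to control reported.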

[1] = dose: 12.5 mg/kg/injection, schedule: Q04DX003 (ip), vehicle: saline
[2] = dose: 12.5 mg/kg/injection, schedule: Q01DX009 (ip), vehicle: saline with Tween-80
[3] = dose: 25.0 mg/kg/injection, schedule: Q01DX009 (ip), vehicle: saline with Tween-80
[4] = dose: 50.0 mg/kg/injection, schedule: Q01DX009 (ip), vehicle: saline with Tween-80
[5] = dose: 25.0 mg/kg/injection, schedule: Q01DX009 (ip), vehicle: saline
[6] = dose: 50.0 mg/kg/injection, schedule: Q01DX009 (ip), vehicle: saline
[7] = dose: 50.0 mg/kg/injection, schedule: Q04DX003 (ip), vehicle: saline
[8] = dose: 100.0 mg/kg/injection, schedule: Q01DX009 (ip), vehicle: saline
[9] = dose: 100.0 mg/kg/injection, schedule: Q04DX003 (ip), vehicle: saline
[10] = dose: 200.0 mg/kg/injection, schedule: Q01DX009 (ip), vehicle: saline
[11] = dose: 200.0 mg/kg/injection, schedule: Q04DX003 (ip), vehicle: saline
[12] = dose: 400.0 mg/kg/injection, schedule: Q04DX003 (ip), vehicle: saline
[13] = dose: 100.0 mg/kg/injection, schedule: Q01DX009 (ip), vehicle: saline with Tween-80
[14] = dose: 100.0 mg/kg/injection, schedule: Q04DX003 (ip), vehicle: saline with Tween-80
[15] = dose: 200.0 mg/kg/injection, schedule: Q04DX003 (ip), vehicle: saline with Tween-80
[16] = dose: 400.0 mg/kg/injection, schedule: Q04DX003 (ip), vehicle: saline with Tween-80
[17] = dose: 200.0 mg/kg/injection, schedule: Q01DX009 (ip), vehicle: saline with Tween-80

CC(c1ccccc1)[n+]1ccccc1C1OCCO1 (configuration not stated)
T/C (dose: 6.25 mg/kg/injection, schedule: Q04DX003 (ip), vehicle: saline): 100 % of control | T/C [1]: 97 % of control

COc1cc(O)c2c(c1)C(=O)c1cc(C)cc(O)c1C2=O
T/C (dose: 2.5 mg/kg/injection, schedule: Q01DX009 (ip), vehicle: saline with Tween-80): 100 % of control | T/C (dose: 5.0 mg/kg/injection, schedule: Q01DX009 (ip), vehicle: saline with Tween-80): 100 % of control | T/C (dose: 10.0 mg/kg/injection, schedule: Q01DX009 (ip), vehicle: saline with Tween-80): 95 % of control | T/C (dose: 20.0 mg/kg/injection, schedule: Q01DX009 (ip), vehicle: saline with Tween-80): 100 % of control

Clc1ccc(C(c2ccc(Cl)cc2)C(Cl)(Cl)Cl)cc1
T/C [2]: 102 % of control | T/C [3]: 102 % of control | T/C [4]: 88 % of control

CCN(CC)Cc1cc(Nc2c3ccc([N+](=O)[O-])cc3nc3ccc(OC)cc23)ccc1O
T/C [1]: 111 % of control | T/C [5]: 97 % of control | T/C (dose: 25.0 mg/kg/injection, schedule: Q04DX003 (ip), vehicle: saline): 111 % of control | T/C [6]: 104 % of control | T/C [7]: 113 % of control | T/C [8]: 100 % of control | T/C [9]: 113 % of control | T/C [10]: 121 % of control | T/C [11]: 89 % of control | T/C [12]: 104 % of control

Cc1nc(Cl)c(C(N)=O)nc1C
T/C [2]: 91 % of control | T/C [3]: 88 % of control and 94 % of control | T/C [4]: 97 % of control | T/C (dose: 50.0 mg/kg/injection, schedule: Q04DX003 (ip), vehicle: saline with Tween-80): 113 % of control | T/C [13]: 90 % of control and 106 % of control | T/C [14]: 96 % of control | T/C (dose: 150.0 mg/kg/injection, schedule: Q01DX009 (ip), vehicle: saline with Tween-80): 97 % of control | T/C [15]: 92 % of control | T/C [16]: 99 % of control

CCOC(/C=C/c1ccccc1)OCC
T/C (dose: 264.0 mg/kg/injection, schedule: Q04DX003 (ip), vehicle: saline): 90 % of control | T/C [12]: 100 % of control | T/C (dose: 600.0 mg/kg/injection, schedule: Q04DX003 (ip), vehicle: saline): 113 % of control

Nc1ncnc2c(C3OC(CO)C(O)C3O)[nH]nc12 (configuration not stated)
T/C (dose: 1.5 mg/kg/injection, schedule: Q01DX009 (ip), vehicle: saline): 100 % of control | T/C (dose: 2.3 mg/kg/injection, schedule: Q01DX009 (ip), vehicle: saline): 109 % of control | T/C (dose: 8.0 mg/kg/injection, schedule: Q01DX009 (ip), vehicle: saline): 113 % of control | T/C (dose: 12.5 mg/kg/injection, schedule: Q01DX009 (ip), vehicle: saline): 159 % of control | T/C (dose: 33.0 mg/kg/injection, schedule: Q04DX003 (ip), vehicle: saline): 104 % of control | T/C [7]: 114 % of control | T/C (dose: 75.0 mg/kg/injection, schedule: Q04DX003 (ip), vehicle: saline): 95 % of control | T/C (dose: 100.0 mg/kg/injection, schedule: Q04DX003 (ip), vehicle: saline sonified): 118 % of control

O=C1CN(N2C(=O)CSC2C23CC4CC(CC(C4)C2)C3)C(=O)CN1c1ccccc1 (configuration not stated)
T/C [4]: 92 % of control | T/C [13]: 92 % of control

CCCCCCCCCCCCCCCC[N+]1([O-])CCCC1
T/C [2]: 110 % of control | T/C [3]: 99 % of control | T/C [4]: 108 % of control

C[N+](C)(C)CC(O)CC#N (configuration not stated)
T/C (dose: 12.5 mg/kg/injection, schedule: Q01DX009 (ip), vehicle: Klucel (hydroxypropylcellulose) (HPC)): 100 % of control | T/C (dose: 25.0 mg/kg/injection, schedule: Q01DX009 (ip), vehicle: Klucel (hydroxypropylcellulose) (HPC)): 100 % of control | T/C (dose: 50.0 mg/kg/injection, schedule: Q01DX009 (ip), vehicle: Klucel (hydroxypropylcellulose) (HPC)): 90 % of control

CCCCSCc1nc2nc(Cl)c(Cl)nc2[nH]1
T/C [4]: 110 % of control | T/C [13]: 108 % of control | T/C [14]: 109 % of control | T/C [17]: 91 % of control | T/C [15]: 95 % of control | T/C (dose: 400.0 mg/kg/injection, schedule: Q01DX009 (ip), vehicle: saline with Tween-80): 94 % of control | T/C [16]: 95 % of control

CCCC#CCOCC(O)CCl (configuration not stated)
T/C [8]: 104 % of control | T/C [14]: 104 % of control | T/C [10]: 109 % of control | T/C [15]: 108 % of control

Cc1ccc(CNc2ccc(I)cc2)cc1
T/C [14]: 105 % of control | T/C [15]: 95 % of control | T/C [16]: 105 % of control

COC1(OC)OC(c2ccccc2)=C(C#N)C(/C=C\c2ccccc2)C1(OC)OC (configuration not stated)
T/C [2]: 100 % of control | T/C [3]: 91 % of control | T/C [4]: 90 % of control and 91 % of control | T/C [17]: 106 % of control

CCCCCC#CC1OC1(C)C (configuration not stated)
T/C [2]: 97 % of control and 100 % of control | T/C [3]: 101 % of control and 103 % of control | T/C [4]: 108 % of control and 116 % of control | T/C [13]: 108 % of control and 117 % of control and 121 % of control

CN(C)NCCC#N
T/C [6]: 100 % of control | T/C (dose: 66.0 mg/kg/injection, schedule: Q01DX009 (ip), vehicle: saline): 111 % of control | T/C (dose: 75.0 mg/kg/injection, schedule: Q01DX009 (ip), vehicle: saline): 117 % of control | T/C [8]: 100 % of control and 111 % of control | T/C (dose: 150.0 mg/kg/injection, schedule: Q01DX009 (ip), vehicle: saline): 118 % of control | T/C [10]: 86 % of control

O=C(CN1CC1)NCCCCCCCCCNC(=O)CN1CC1
T/C (dose: 8.0 mg/kg/injection, schedule: Q04DX003 (ip), vehicle: saline): 122 % of control | T/C (dose: 12.0 mg/kg/injection, schedule: Q04DX003 (ip), vehicle: saline): 122 % of control | T/C (dose: 18.0 mg/kg/injection, schedule: Q04DX003 (ip), vehicle: saline): 122 % of control | T/C (dose: 18.75 mg/kg/injection, schedule: Q04DX003 (ip), vehicle: saline sonified): 218 % of control | T/C (dose: 37.5 mg/kg/injection, schedule: Q04DX003 (ip), vehicle: saline sonified): 172 % of control

Nc1nc(N)c2cc(CNc3ccc(Cl)c(C(=O)NC(CC(=O)O)C(=O)O)c3)cnc2n1 (configuration not stated)
T/C [8]: 100 % of control | T/C [9]: 102 % of control | T/C [10]: 100 % of control | T/C [11]: 99 % of control | T/C (dose: 400.0 mg/kg/injection, schedule: Q01DX009 (ip), vehicle: saline): 108 % of control | T/C [12]: 94 % of control

CN1CC(=O)N=C1N
T/C (dose: 100.0 mg/kg/injection, schedule: Q01DX009 (ip), vehicle: Klucel (hydroxypropylcellulose) (HPC)): 90 % of control | T/C (dose: 200.0 mg/kg/injection, schedule: Q01DX009 (ip), vehicle: Klucel (hydroxypropylcellulose) (HPC)): 95 % of control | T/C (dose: 400.0 mg/kg/injection, schedule: Q01DX009 (ip), vehicle: Klucel (hydroxypropylcellulose) (HPC)): 100 % of control

CO[C@@H](C=O)O[C@@H](C=O)CO
T/C (dose: 6.25 mg/kg/injection, schedule: Q01DX009 (ip), vehicle: saline): 120 % of control | T/C [5]: 150 % of control | T/C [7]: 150 % of control | T/C (dose: 89.0 mg/kg/injection, schedule: Q04DX003 (ip), vehicle: saline): 170 % of control | T/C [9]: 160 % of control | T/C (dose: 133.0 mg/kg/injection, schedule: Q04DX003 (ip), vehicle: saline): 160 % of control | T/C [11]: 175 % of control and 180 % of control

OCCNCCNCC[OH2+].OCCNCCNCC[OH2+].[Cu+2].[O-][Cl+3]([O-])([O-])[O-]
T/C (dose: 12.5 mg/kg/injection, schedule: Q01DX009 (ip), vehicle: other): 99 % of control | T/C (dose: 25.0 mg/kg/injection, schedule: Q01DX009 (ip), vehicle: other): 115 % of control | T/C (dose: 50.0 mg/kg/injection, schedule: Q01DX009 (ip), vehicle: other): 109 % of control

Cc1sc(C)c2c1C[Se]Cc1c(C)sc(C)c1C[Se]C2
T/C (dose: 12.5 mg/kg/injection, schedule: Q01DX001 (ip), vehicle: saline with Tween-80): 95 % of control | T/C (dose: 25.0 mg/kg/injection, schedule: Q01DX001 (ip), vehicle: saline with Tween-80): 107 % of control | T/C (dose: 50.0 mg/kg/injection, schedule: Q01DX001 (ip), vehicle: saline with Tween-80): 118 % of control

S=c1[nH]ncn1-c1ccccc1
T/C (dose: 6.25 mg/kg/injection, schedule: Q01DX009 (ip), vehicle: saline with Tween-80): 99 % of control | T/C [2]: 99 % of control | T/C [3]: 99 % of control | T/C [4]: 96 % of control

CCOC(=O)CCSCC(C)(C)C(=O)OCC
T/C [9]: 90 % of control | T/C [11]: 100 % of control | T/C [12]: 95 % of control

OC12CCC[N+]1(Cc1ccccc1)CCC2 (configuration not stated)
T/C (dose: 25.0 mg/kg/injection, schedule: Q01DX010 (ip), vehicle: carboxymethylcellulose (CMC)): 90 % of control

CCOC(=O)C(Cc1ccc(OC)c(OC)c1)C(Cc1ccc(OC)c(OC)c1)C(=O)OCC (configuration not stated)
T/C [13]: 90 % of control | T/C [17]: 104 % of control
